Measured values from US10077243B2, “Compounds for treating disorders mediated by metabotropic glutamate receptor 5, and methods of use thereof” (Sunovion Pharmaceuticals Inc., priority 2009, dated 2018).
pEC50: −log10 of the molar value. Read-outs that look alike come from different tables or passages of the source.

Target: T1, human mGluR5 (Homo sapiens, UniProt P41594)
T1 construct: expressed in transfected cells; host or cells: HEK293 cells stably expressing rat GLAST (EAAT1), stably transfected with pcDNAzeo3.1 carrying synthetic human mGluR5 DNA; zeocin-selected single clones
Test: In vitro cell-based FLIPR calcium assay for positive modulation of the activation of mGluR5 by glutamate (PAM EC50)
Conditions: FLIPR calcium signal, glutamate added at its EC20
Procedure, shortened: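 PAM activity was measured as FLIPR calcium fluorescence in the presence of an EC20 glutamate concentration determined daily from a glutamate concentration-response curve. Cells were HEK293/GLAST clones expressing mGluR5, dye-loaded at 25 °C for 45–60 min in HEPES-buffered HBSS; vehicle control was 0.3% DMSO.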

[1] = HEK293/GLAST cells expressing recombinant human mGluR5, read-out: mGluR5 PAM EC50

T1 sequence (P41594 21-1212): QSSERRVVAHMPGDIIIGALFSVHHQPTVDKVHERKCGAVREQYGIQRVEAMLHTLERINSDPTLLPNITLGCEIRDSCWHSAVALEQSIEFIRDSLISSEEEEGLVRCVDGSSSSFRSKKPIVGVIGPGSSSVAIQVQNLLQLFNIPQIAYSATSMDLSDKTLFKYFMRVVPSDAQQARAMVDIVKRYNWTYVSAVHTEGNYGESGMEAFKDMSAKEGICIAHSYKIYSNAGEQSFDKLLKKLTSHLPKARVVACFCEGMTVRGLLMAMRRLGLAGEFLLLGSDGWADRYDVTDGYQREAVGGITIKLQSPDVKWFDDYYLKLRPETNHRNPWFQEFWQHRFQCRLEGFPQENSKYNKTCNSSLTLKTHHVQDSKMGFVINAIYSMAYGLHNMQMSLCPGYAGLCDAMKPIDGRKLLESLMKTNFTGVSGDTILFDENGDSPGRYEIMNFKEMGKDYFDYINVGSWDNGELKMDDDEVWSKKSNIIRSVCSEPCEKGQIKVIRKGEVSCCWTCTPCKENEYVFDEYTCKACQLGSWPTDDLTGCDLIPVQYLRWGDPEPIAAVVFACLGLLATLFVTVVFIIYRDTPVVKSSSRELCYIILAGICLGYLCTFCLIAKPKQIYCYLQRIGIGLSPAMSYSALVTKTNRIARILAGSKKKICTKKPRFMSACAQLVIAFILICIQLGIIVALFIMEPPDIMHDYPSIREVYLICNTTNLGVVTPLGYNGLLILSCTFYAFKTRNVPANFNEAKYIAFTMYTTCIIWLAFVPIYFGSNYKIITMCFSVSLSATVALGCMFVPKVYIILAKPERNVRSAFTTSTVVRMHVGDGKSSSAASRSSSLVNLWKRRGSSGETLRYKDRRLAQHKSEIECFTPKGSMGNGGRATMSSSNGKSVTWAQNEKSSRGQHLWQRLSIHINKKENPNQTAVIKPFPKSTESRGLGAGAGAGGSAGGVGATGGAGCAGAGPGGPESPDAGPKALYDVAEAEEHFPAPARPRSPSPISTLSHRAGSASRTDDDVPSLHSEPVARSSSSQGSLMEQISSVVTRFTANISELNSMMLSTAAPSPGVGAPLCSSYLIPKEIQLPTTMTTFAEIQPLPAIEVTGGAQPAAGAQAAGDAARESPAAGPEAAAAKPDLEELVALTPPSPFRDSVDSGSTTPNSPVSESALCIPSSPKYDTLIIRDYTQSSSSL

Compound: Cc1cc(F)ccc1C#Cc1ccc2c(=O)n3c(nc2c1)CCC1(CC3)OCCO1 [Example 7.6]
- pEC50 [1]: 6.00 to 6.52

Compound: O=c1c2c(nc3cc(C#Cc4ccccc4)ccn13)CCCCC2 [Example 16.2, 3-(phenylethynyl)-7,8,9,10-tetrahydrocyclohepta[d]pyrido[1,2-a]pyrimidin-11(6H)-one]
- pEC50 [1]: > 8.00

Compound: CC1(O)CCc2nc3cc(C#Cc4ccccn4)ccc3c(=O)n2C1 (stereo not drawn) [Example 4.45, 8-hydroxy-8-methyl-3-(pyridin-2-ylethynyl)-8,9-dihydro-6H-pyrido[2,1-b]quinazolin-11(7H)-one]
- pEC50 [1]: 6.52 to 7.00

Compound: CC(C)(O)c1cnc2cc(C#Cc3cccc(F)c3)ccn2c1=O [Example 13.18, 8-((3-fluorophenyl)ethynyl)-3-(2-hydroxypropan-2-yl)-4H-pyrido[1,2-a]pyrimidin-4-one]
- pEC50 [1]: 6.52 to 7.00

Compound: O=c1c2ccc(C#CC3CCCC3)cc2nc2n1CCC1(CC2)OCCO1 [Example 7.52]
- pEC50 [1]: 6.00 to 6.52

Compound: O=c1c2ccc(C#Cc3ccccn3)cc2nc2n1CC(O)CC2 (stereo not drawn) [Example 4.24, 8-hydroxy-3-(pyridin-2-ylethynyl)-8,9-dihydro-6H-pyrido[2,1-b]quinazolin-11(7H)-one]
- pEC50 [1]: 6.00 to 6.52

Compound: O=c1c2ccc(C#Cc3cccc(F)c3)cc2nc2n1CC1(CC2)OCCO1 [Example 4.21, 3′((3-fluorophenyl)ethynyl)-6′,7′-dihydrospiro[[1,3]dioxolane-2,8′-pyrido[2,1-b]quinazolin]-11′(9′H)-one]
- pEC50 [1]: 7.52 to 8.00

Compound: CC1(C)CCc2nc3cc(C#Cc4ccccn4)ccn3c(=O)c2C1 [Example 15.4, 2,2-dimethyl-7-(pyridin-2-ylethynyl)-3,4-dihydro-1H-Pyrido[2,1-b]quinazolin-11(2H)-one]
- pEC50 (mGluR5 PAM EC50, HEK293/GLAST cells expressing recombinant human mGluR5): > 8.00

Compound: CC1CCc2nc3cc(C#Cc4ccc(F)cc4)ccc3c(=O)n2CC1 (stereo not drawn) [Example 6.6, 3-((4-fluorophenyl)ethynyl)-8-methyl-7,8,9,10-tetrahydroazepino[2,1-b]quinazolin-12(6H)-one]
- pEC50 [1]: > 8.00

Compound: CN(C)CC1CCc2nc3cc(C#Cc4cccc(F)c4)ccc3c(=O)n21 (stereo not drawn) [Example 3.4, 1-((dimethylamino)methyl)-6-((3-fluorophenyl)ethynyl)-2,3-dihydropyrrolo[2,1-b]quinazolin-9(1H)-one]
- pEC50 [1]: 6.52 to 7.00

Compound: COCC1CCc2nc3cc(C#Cc4ccccn4)ccc3c(=O)n2C1 (single isomer, unassigned) [4.34a/4.34b faster moving enantiomer (fraction 1), 8-(methoxymethyl)-3-(pyridin-2-ylethynyl)-8,9-dihydro-6H-pyrido[2,1-b]quinazolin-11(7H)-one]
- pEC50 [1]: 7.00 to 7.52

Compound: Fc1ccc(C#Cc2ccc3c(c2)N=C2CCCCCN2C3)cc1 [Example 19.1, 3-((4-fluorophenyl)ethynyl)-6,7,8,9,10,12-hexahydroazepino[2,1-b]quinazoline]
- pEC50 [1]: 7.00 to 7.52

Compound: CC1(C)CCn2c(nc3cc(CCc4ccccn4)ccc3c2=O)C1 [Example 21.6, 7,7-dimethyl-3-(2-(pyridin-2-yl)ethyl)-8,9-dihydro-6H-pyrido[2,1-b]quinazolin-11(7H)-one]
- pEC50 [1]: 6.00 to 6.52

Compound: CN1CCOCC1c1nc2cc(C#Cc3cccc(F)c3)ccc2c(=O)n1C (stereo not drawn) [Example 2.9, 7-((3-fluorophenyl)ethynyl)-3-methyl-2-(4-methylmorpholin-3-yl)quinazolin-4(3H)-one]
- pEC50 [1]: > 8.00

Compound: CC1(C)Cc2nc3cc(C#Cc4ccccn4)ccc3c(=O)n2C1 [Example 3.20, 2,2-dimethyl-6-(pyridin-2-ylethynyl)-2,3-dihydropyrrolo[2,1-b]quinazolin-9(1H)-one]
- pEC50 [1]: > 8.00

Compound: CC1CCc2nc3cc(C#Cc4ccccn4)ccn3c(=O)c2CC1 (stereo not drawn) [Example 16.6, 8-methyl-3-(pyridin-2-ylethynyl)-7,8,9,10-tetrahydrocyclohepta[d]pyrido[1,2-a]pyrimidin-11(6H)-one]
- pEC50 [1]: > 8.00

Compound: C=CCN1CCc2nc3cc(C#Cc4cccc(F)c4)ccc3c(=O)n2CC1 [Example 8.12, 3-allyl-8-((3-fluorophenyl)ethynyl)-2,3,4,5-tetrahydro-[1,4]diazepino[7,1-b]quinazolin-11(1H)-one]
- pEC50 [1]: 7.52 to 8.00

Compound: CC1CCc2nc3cc(C#Cc4ccccn4)cnc3c(=O)n2CC1 (single isomer, unassigned) [11.9a/11.9b faster moving enantiomer (fraction 1), 8-methyl-3-(pyridin-2-ylethynyl)-7,8,9,10-tetrahydropyrido[3′,2′: 4,5]pyrimido[1,2-a]azepin-12(6H)-one]
- pEC50 [1]: 7.00 to 7.52

Compound: CC(c1nc2cc(C#Cc3ccccn3)ccc2c(=O)n1C)N(C)C1CCC1 (stereo not drawn) [Example 2.23, 2-(1-(cyclobutyl(methyl)amino)ethyl)-3-methyl-7-(pyridin-2-ylethynyl)quinazolin-4(3H)-one]
- pEC50 [1]: 6.00 to 6.52

Compound: O=c1c2c(nc3cc(C#Cc4ccccn4)ccn13)CCCCC2 [Example 16.3, 3-(pyridin-2-ylethynyl)-7,8,9,10-tetrahydrocyclohepta[d]pyrido[1,2-a]pyrimidin-11(6H)-one]
- pEC50 [1]: > 8.00

Compound: COCC1CCc2nc3cc(C#Cc4ccccn4)ccc3c(=O)n2C1 (single isomer, unassigned) [4.34a/4.34b slower moving enantiomer (fraction 2), 8-(methoxymethyl)-3-(pyridin-2-ylethynyl)-8,9-dihydro-6H-pyrido[2,1-b]quinazolin-11(7H)-one]
- pEC50 [1]: 7.00 to 7.52

Compound: O=c1c2ccc(C#Cc3ccc(F)cc3)cc2nc2n1CCOC2 [Example 4.2, 9-((4-fluorophenyl)ethynyl)-3,4-dihydro-[1,4]oxazino[3,4-b]quinazolin-6(1H)-one]
- pEC50 [1]: 7.00 to 7.52

Compound: O=c1c2ccc(C#Cc3cccc(F)c3)cc2nc2n1CC(Cc1ccccc1)C2 (stereo not drawn) [Example 3.10]
- pEC50 [1]: > 8.00

Compound: O=C(Nc1ccc2c(=O)n3c(nc2c1)CCCCCC3)c1ccc(F)cc1 [Example 24.1, 4-fluoro-N-(13-oxo-7,8,9,10,11,13-hexahydro-6H-azocino[2,1-b]quinazolin-3-yl)benzamide]
- pEC50 [1]: 6.00 to 6.52

Compound: Cc1csc(C#Cc2ccc3c(=O)n4c(nc3c2)CCC2(CC4)OCCO2)n1 [Example 7.61]
- pEC50 [1]: 7.00 to 7.52

Compound: CC(c1nc2cc(C#Cc3ccccn3)ccc2c(=O)n1C)N(C)C (stereo not drawn) [Example 2.21, 2-(1-(dimethylamino)ethyl)-3-methyl-7-(pyridin-2-ylethynyl)quinazolin-4(3H)-one]
- pEC50 [1]: 6.52 to 7.00

Compound: O=c1c(CO)cnc2cc(C#Cc3cccc(F)c3)ccn12 [Example 13.6, 8-((3-fluorophenyl)ethynyl)-3-(hydroxymethyl)-4H-pyrido[1,2-a]pyrimidin-4-one]
- pEC50 [1]: 6.00 to 6.52

Compound: O=c1c2ccc(C#Cc3ccc(F)nc3)cc2nc2n1CCC1(CC2)OCCO1 [Example 7.15]
- pEC50 [1]: 7.00 to 7.52

Compound: O=c1c2ccc(C#Cc3ccc(F)cc3)cc2ncn1C1CCCC1 [Example 1.10, 3-cyclopentyl-7-((4-fluorophenyl)ethynyl)quinazolin-4(3H)-one]
- pEC50 [1]: 7.00 to 7.52

Compound: CC(C)Cc1nc2cc(C#Cc3cccc(F)c3)ccc2c(=O)n1C [Example 2.12, 7-((3-fluorophenyl)ethynyl)-2-isobutyl-3-methylquinazolin-4(3H)-one]
- pEC50 [1]: 7.00 to 7.52

Compound: O=c1c2ccc(C#Cc3ccccc3C(F)(F)F)cc2nc2n1CCC1(CC2)OCCO1 [Example 7.40]
- pEC50 [1]: 6.52 to 7.00

Compound: N#Cc1cccc(C#Cc2ccc3c(=O)n4c(nc3c2)CCC2(CC4)OCCO2)c1 [Example 7.38]
- pEC50 [1]: 7.00 to 7.52

Compound: O=c1c2ccc(C#Cc3cccnc3)cc2nc2n1CC1CCCN1C2 (stereo not drawn) [Example 5.24, 8-(pyridin-3-ylethynyl)-2,3,13,13a-tetrahydro-1H-pyrrolo[1′,2′:4,5]pyrazino[2,1-b]quinazolin-11(5H)-one]
- pEC50 [1]: 7.00 to 7.52

Compound: CC1(C)CCc2nc3cc(/C=C/c4ccccc4F)ccc3c(=O)n2C1 [Example 20.12, (E)-3-(2-fluorostyryl)-8,8-dimethyl-8,9-dihydro-6H-pyrido[2,1-b]quinazolin-11(7H)-one]
- pEC50 [1]: 7.00 to 7.52

Compound: CCNC(=O)c1cnc2cc(C#Cc3cccc(F)c3)ccn2c1=O [Example 13.5, N-ethyl-8-((3-fluorophenyl)ethynyl)-4-oxo-4H-pyrido[1,2-a]pyrimidine-3-carboxamide]
- pEC50 [1]: 7.52 to 8.00

Compound: O=c1c2ncc(C#Cc3cccc(F)c3)cc2nc2n1CCCCC2 [Example 11.7, 3-((3-fluorophenyl)ethynyl)-7,8,9,10-tetrahydropyrido[3′,2′:4,5]pyrimido[1,2-a]azepin-12(6H)-one]
- pEC50 [1]: > 8.00

Compound: CN1CCn2c(nc3cc(C#Cc4cccc(F)c4)ccc3c2=O)C1 [Example 5.4, 9-((3-fluorophenyl)ethynyl)-2-methyl-3,4-dihydro-1H-pyrazino[2,1-b]quinazolin-6(2H)-one]
- pEC50 [1]: > 8.00

Compound: O=c1c2ccc(C#Cc3ccccn3)cc2nc2n1CC1CCCN1CC2 (stereo not drawn) [Example 9.4, 9-(pyridin-2-ylethynyl)-2,3,5,6,14,14a-hexahydropyrrolo[2′,1′:3,4][1,4]diazepino[7,1-b]quinazolin-12(1H)-one]
- pEC50 [1]: 7.00 to 7.52

Compound: O=c1c2ccc(C#Cc3ccccc3)cc2nc2n1CCCCC2 [Example 6.4, 3-(phenylethynyl)-7,8,9,10-tetrahydroazepino[2,1-b]quinazolin-12(6H)-one]
- pEC50 [1]: > 8.00

Compound: O=c1c2ccc(C#Cc3cccc(F)c3)cc2nc2n1CCN(Cc1ccccc1)CC2 [Example 8.9, 3-benzyl-8-((3-fluorophenyl)ethynyl)-2,3,4,5-tetrahydro-[1,4]diazepino[7,1-b]quinazolin-11(1H)-one]
- pEC50 [1]: 7.52 to 8.00

Compound: O=c1c2c(nc3cc(C#Cc4ccccn4)ccn13)CCCC2 [Example 15.1, 7-(pyridin-2-ylethynyl)-3,4-dihydro-1H-pyrido[2,1-b]quinazolin-11(2H)-one]
- pEC50 [1]: 7.00 to 7.52

Compound: COC1(C)CCc2nc3cc(C#Cc4ccccn4)ccc3c(=O)n2C1 (stereo not drawn) [Example 4.46, 8-methoxy-8-methyl-3-(pyridin-2-ylethynyl)-8,9-dihydro-6H-pyrido[2,1-b]quinazolin-11(7H)-one]
- pEC50 [1]: 7.52 to 8.00
